Reference: patent publication US11897862B2 (Gilead Sciences, Inc., priority 2022, dated 2024)

Key:
Format in all cases: cell-based
IKZF2 = IKZF2 (Homo sapiens, UniProt Q96SW2+Q9UKS7); assay: HEK293 HiBiT in vitro degradation of IKZF2; design: expressed in transfected cells; settings: for DC50: 18-24 hr incubation, normalized to DMSO control, read-out: IKZF2 EC50; for IKZF2 Dmax / Dmax: maximum degradation at the highest concentration tested
In short: (§1)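 Flp-In T-REx HEK293 stable pools carry a single integrated copy of C-terminal HiBiT-tagged IKZF1, IKZF2 or SALL4 under a tetracycline operator, induced overnight at 37 °C with doxycycline ([…] final). Cells were then treated with serially diluted compounds for 18-24 h. Nano-Glo lytic luminescence gave EC50 and Dmax.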

SALL4 = target: T1, SALL4 (Homo sapiens, UniProt Q96SW2+Q9UJQ4); assay: HEK293 HiBiT in vitro degradation of SALL4; settings: for DC50: 18-24 hr incubation, normalized to DMSO control, read-out: SALL4 EC50
T1 construct: expressed in transfected cells
T1 sequence (Q9UJQ4 whole entry): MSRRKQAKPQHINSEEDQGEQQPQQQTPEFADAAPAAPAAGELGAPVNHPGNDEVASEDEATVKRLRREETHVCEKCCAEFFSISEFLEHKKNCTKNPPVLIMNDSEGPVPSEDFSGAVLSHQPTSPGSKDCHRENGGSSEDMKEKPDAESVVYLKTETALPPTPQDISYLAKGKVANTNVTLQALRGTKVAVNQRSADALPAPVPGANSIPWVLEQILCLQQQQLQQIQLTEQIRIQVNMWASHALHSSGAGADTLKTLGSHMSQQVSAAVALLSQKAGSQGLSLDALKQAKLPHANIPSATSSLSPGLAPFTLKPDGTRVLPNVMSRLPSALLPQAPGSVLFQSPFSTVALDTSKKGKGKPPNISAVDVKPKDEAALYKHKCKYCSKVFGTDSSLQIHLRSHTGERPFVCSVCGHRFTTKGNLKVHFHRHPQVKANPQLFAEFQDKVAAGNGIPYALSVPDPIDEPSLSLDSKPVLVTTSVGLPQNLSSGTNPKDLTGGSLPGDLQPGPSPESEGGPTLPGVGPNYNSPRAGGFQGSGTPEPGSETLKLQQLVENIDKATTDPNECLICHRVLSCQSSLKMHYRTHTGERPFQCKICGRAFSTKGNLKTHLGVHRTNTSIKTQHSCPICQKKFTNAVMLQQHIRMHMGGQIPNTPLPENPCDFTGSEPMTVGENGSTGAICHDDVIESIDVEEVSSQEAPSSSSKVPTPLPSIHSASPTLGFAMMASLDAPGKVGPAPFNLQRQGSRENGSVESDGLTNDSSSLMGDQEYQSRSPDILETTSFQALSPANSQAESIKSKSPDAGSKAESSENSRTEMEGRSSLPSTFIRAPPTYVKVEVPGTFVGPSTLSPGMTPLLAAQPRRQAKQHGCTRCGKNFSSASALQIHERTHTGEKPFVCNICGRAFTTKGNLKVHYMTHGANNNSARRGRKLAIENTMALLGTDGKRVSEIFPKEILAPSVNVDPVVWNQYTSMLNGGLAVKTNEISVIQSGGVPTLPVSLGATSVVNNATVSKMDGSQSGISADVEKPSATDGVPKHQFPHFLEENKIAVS
T1 sequence (Q96SW2 whole entry): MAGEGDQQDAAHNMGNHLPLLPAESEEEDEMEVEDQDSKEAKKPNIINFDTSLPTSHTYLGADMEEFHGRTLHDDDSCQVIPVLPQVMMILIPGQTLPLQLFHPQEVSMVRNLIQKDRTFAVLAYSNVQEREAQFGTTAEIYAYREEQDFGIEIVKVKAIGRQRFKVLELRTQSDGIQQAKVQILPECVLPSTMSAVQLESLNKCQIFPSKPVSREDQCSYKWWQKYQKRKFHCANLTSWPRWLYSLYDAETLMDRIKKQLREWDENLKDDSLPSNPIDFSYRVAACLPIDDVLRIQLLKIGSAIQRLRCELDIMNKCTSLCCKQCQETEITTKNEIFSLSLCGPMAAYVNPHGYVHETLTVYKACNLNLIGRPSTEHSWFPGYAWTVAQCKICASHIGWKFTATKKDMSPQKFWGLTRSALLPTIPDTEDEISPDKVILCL
T1 sequence (Q16531 whole entry partner): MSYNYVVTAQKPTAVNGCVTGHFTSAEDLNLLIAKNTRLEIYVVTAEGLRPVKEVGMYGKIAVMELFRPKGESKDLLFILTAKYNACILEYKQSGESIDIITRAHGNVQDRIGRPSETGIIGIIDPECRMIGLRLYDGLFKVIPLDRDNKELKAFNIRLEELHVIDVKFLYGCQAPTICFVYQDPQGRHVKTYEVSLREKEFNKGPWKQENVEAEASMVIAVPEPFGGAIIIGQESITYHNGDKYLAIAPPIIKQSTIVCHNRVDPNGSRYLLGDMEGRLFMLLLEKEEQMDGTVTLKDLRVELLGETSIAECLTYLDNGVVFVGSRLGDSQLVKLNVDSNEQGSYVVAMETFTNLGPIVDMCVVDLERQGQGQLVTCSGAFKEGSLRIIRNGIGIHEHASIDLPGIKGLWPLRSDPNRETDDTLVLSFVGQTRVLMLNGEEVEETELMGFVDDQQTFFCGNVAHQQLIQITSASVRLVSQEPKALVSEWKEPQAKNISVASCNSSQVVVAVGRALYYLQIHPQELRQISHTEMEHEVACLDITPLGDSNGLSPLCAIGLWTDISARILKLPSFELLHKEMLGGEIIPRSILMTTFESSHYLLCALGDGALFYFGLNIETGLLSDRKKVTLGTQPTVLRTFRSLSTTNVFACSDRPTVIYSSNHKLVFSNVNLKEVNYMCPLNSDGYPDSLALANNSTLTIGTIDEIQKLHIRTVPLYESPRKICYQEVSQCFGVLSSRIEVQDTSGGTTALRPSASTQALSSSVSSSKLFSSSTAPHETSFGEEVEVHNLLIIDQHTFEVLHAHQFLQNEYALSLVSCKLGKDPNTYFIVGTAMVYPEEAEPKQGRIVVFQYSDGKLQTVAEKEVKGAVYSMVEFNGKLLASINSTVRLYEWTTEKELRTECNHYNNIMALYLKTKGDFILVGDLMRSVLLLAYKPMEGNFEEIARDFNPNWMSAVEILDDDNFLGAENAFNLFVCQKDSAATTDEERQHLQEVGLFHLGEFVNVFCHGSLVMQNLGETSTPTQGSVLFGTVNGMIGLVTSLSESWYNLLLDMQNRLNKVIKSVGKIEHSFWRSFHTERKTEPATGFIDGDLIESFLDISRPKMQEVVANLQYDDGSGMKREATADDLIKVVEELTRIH
Description: In vitro degradation of IKZF1, IKZF2, and SALL4 was measured using HiBiT protein tagging and detection technology (Promega).
HiBit technology was used to develop the quantitative assays to measure the cellular IKZFs level by tagging an 11 amino acid HiBit peptides […] to the protein of interest. Reporter plasmids were generated by fusing a linker sequence ([…]) followed by the HiBit tag at the C-terminus of IKZF1, IKZF2, and SALL4. The fusion fragments were subsequently cloned into pcDNA5 pcDNA™5/FRT/TO plasmids (Thermo Fisher, cat #V652020) downstream of the tetracycline operator. The resulting plasmids were co-transfected with pOG44 Flp-Recombinase Expression Vector (Thermo Fisher, cat #V600520) into Flp-In™ T-REx HEK293 line (Thermo Fisher, cat #R78077) and a stable cell pool was selected by adding 100 µg/ml of Hygromycin (Thermo Fisher, cat #10687010). The reporter cell enabled Tet-On inducible reporter expression from a single copy of the integrated gene.
On Day 1, Cells were grown to ˜80% confluency in tissue culture medium (DMEM Glutamax (Gibco10569), 10% Tet free FBS (Takara 631106), and PenStrep Glutamin (Gibco 10378)) in tissue culture flasks. Doxycycline was then added to a final concentration of […] to induce reporter expression at 37° C. overnight.
On Day 2, 125 nL of serially-diluted solution of testing compounds were dispensed into 384-well white solid assay plates via ECHO acoustic liquid handler. Cells were lifted by 0.25% Trypsin (Gibco 25200) then pelleted by centrifugation (Beckman Avanti J-E) at 500×g for 5 min. Cell pellets were resuspended in TC medium at the concentration of 3e5/mL and 25 μL of cell suspension were added into each well of compound-spotted plates. The plates were returned to a 37° C. incubator overnight (18-24 hr).
On Day 3, assay plates were removed from the tissue culture incubator and 25 μL of Nano-Glo lytic detection system (Promega, cat #N3030) was added to each well. Plates were incubated at r.t. for 3 min with shaking, and luminescence was read using an Envision reader (Perkin Elmer).
To assess the IKZF1, IKZF2, and SALL4 degrader potential of exemplified compounds of this disclosure and certain Reference Compounds EC50 and Dmax values were determined for the compounds of Examples 1 to 383 and Reference Compounds A-1, B-1, B-2, B-3, B-4, and C-1 in the HiBiT assays. Asterisks (*) indicate examples for which the data shown represents an average of n≥3.

IKZF1 = target: T2, IKZF1 (Homo sapiens, UniProt Q13422+Q96SW2); assay: HEK293 HiBiT in vitro degradation of IKZF1; settings: for DC50: 18-24 hr incubation, normalized to DMSO control, read-out: IKZF1 EC50; for Dmax: HEK293, HEK293 HiBiT
T2 construct: expressed in transfected cells
T2 sequence (Q13422 whole entry): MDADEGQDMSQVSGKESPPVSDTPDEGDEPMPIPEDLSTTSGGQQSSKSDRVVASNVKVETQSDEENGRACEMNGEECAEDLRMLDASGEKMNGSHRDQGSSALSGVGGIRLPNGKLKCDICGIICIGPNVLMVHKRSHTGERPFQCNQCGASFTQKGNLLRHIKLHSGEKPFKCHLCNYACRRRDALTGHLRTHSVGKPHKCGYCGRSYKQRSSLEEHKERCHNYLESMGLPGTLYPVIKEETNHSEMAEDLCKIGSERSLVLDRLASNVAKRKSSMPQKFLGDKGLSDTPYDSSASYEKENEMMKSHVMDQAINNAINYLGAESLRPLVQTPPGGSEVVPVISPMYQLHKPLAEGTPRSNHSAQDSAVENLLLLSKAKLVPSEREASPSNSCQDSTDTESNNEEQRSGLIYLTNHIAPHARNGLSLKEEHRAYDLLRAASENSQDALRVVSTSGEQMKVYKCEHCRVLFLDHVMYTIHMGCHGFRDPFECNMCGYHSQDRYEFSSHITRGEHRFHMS
T2 sequence (Q96SW2 whole entry): as the sequence (Q96SW2 whole entry) above
T2 sequence (Q16531 whole entry partner): as the sequence (Q16531 whole entry partner) above
In short: as §1

[1] = maximum degradation at the highest concentration tested

Sequence of IKZF2 (Q9UKS7 1-500 isoform Q9UKS7-2): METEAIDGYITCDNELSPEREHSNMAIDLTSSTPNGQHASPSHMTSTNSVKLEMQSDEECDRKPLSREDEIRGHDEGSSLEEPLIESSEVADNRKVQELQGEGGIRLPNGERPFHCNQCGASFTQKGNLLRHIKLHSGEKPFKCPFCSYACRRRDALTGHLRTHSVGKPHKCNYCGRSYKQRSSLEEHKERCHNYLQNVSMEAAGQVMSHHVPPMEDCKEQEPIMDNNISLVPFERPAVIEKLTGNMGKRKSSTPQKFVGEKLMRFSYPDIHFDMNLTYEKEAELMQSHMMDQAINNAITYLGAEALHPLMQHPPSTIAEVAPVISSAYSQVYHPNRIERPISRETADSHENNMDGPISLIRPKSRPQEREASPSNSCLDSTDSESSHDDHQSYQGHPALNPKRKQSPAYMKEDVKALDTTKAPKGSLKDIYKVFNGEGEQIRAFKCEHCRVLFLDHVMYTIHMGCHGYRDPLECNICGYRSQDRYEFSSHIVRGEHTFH
Sequence of IKZF2 (Q96SW2 whole entry): as the sequence (Q96SW2 whole entry) above
Sequence of IKZF2 (Q16531 whole entry partner): as the sequence (Q16531 whole entry partner) above

| Compound | DC50 (IKZF2; HEK293 HiBiT) [nM] | IKZF2 Dmax (IKZF2; HEK293 HiBiT) [%] | DC50 (SALL4) [µM] | DC50 (IKZF1; HEK293 HiBiT) [nM] | Dmax (IKZF2; HEK293, HEK293 HiBiT) [%] | Dmax (IKZF1; [1]) [%] | IKZF1 Dmax (IKZF1; HEK293 HiBiT, maximum degradation at the highest concentration tested) [%] | Dmax (IKZF2; HEK293 HiBiT) [%] | Dmax (SALL4; [1]) [%] |
| --- | --- | --- | --- | --- | --- | --- | --- | --- | --- |
| COCC1CCC(N[C@H]2CCCO[C@@H]2Cc2ccc3c(c2F)CN(C2CCC(=O)NC2=O)C3=O)CC1 (single isomer, unassigned) [Example 265] | 3 | 96 | > 10 | > 1000 |  |  |  |  |  |
| COC1(C)CCC(N[C@H]2CCCO[C@@H]2Cc2ccc3c(c2F)CN(C2CCC(=O)NC2=O)C3=O)CC1 (single isomer, unassigned) [Example 316] | 7 |  | > 10 | > 1000 | 95 |  |  |  |  |
| CC1CC[C@H](NC2CCC(F)(F)CC2)[C@@H](Cc2ccc3c(c2)CN(C2CCC(=O)NC2=O)C3=O)C1 (single isomer, unassigned) [Example 324] | 3 |  | > 10 | 16 | 95 | 71 |  |  |  |
| O=C1CCC(N2Cc3c(ccc(C[C@H]4OCCC[C@@H]4NC4CCC(OC(F)F)CC4)c3F)C2=O)C(=O)N1 (single isomer, unassigned) [Example 327] | 3 | 96 | > 10 | 535 |  |  |  |  |  |
| O=C1CC[C@H](N2Cc3c(ccc(C[C@H]4OCCC[C@@H]4N[C@H]4CC[C@H](C(F)F)CC4)c3F)C2=O)C(=O)N1 (single isomer, unassigned) [Example 330] | 3 |  | > 10 | 37 | 94 | 28 |  |  |  |
| O=C1CC[C@@H](N2Cc3c(ccc(C[C@H]4OCCC[C@@H]4N[C@H]4CC[C@H](C(F)F)CC4)c3F)C2=O)C(=O)N1 (single isomer, unassigned) [Example 331] | 4 |  | > 10 | 448 | 96 |  |  |  |  |
| O=C1CC[C@H](N2Cc3c(ccc(C[C@H]4OCCC[C@@H]4NC4CCC(F)(F)CC4)c3F)C2=O)C(=O)N1 (single isomer, unassigned) [Example 332] | 6 |  | > 10 | > 1000 | 95 |  |  |  |  |
| O=C1CC[C@@H](N2Cc3c(ccc(C[C@H]4OCCC[C@@H]4NC4CCC(F)(F)CC4)c3F)C2=O)C(=O)N1 (single isomer, unassigned) [Example 333] | 9 |  | > 10 | 210 | 94 |  |  |  |  |
| O=C1CC[C@H](N2Cc3c(ccc(C[C@H]4CCCC[C@@H]4NC4CCC(F)(F)CC4)c3F)C2=O)C(=O)N1 (single isomer, unassigned) [Example 334] | 1 |  | > 10 | 13 | 97 | 59 |  |  |  |
| O=C1CC[C@@H](N2Cc3c(ccc(C[C@H]4CCCC[C@@H]4NC4CCC(F)(F)CC4)c3F)C2=O)C(=O)N1 (single isomer, unassigned) [Example 335] | 1 |  | > 10 | 16 | 97 | 62 |  |  |  |
| O=C1CCC(N2Cc3cc(C[C@H]4CCCC[C@@H]4NC4CCc5c(C(F)(F)F)n[nH]c5C4)ccc3C2=O)C(=O)N1 (single isomer, unassigned) [Example 362] | 11 |  | > 10 | 114 | 97 | 39 |  |  |  |
| O=C1CCC(N2Cc3cc(C[C@H]4CCCC[C@@H]4NC4CCc5c(C(F)(F)F)n[nH]c5C4)ccc3C2=O)C(=O)N1 (single isomer, unassigned) [Example 363] | 1 | 97 | > 10 | 50 |  |  | 56 |  |  |
| O=C1CCC(N2Cc3c(ccc(C[C@H]4OCCC[C@@H]4NC4CCC5(CC4)CC5(F)F)c3F)C2=O)C(=O)N1 (single isomer, unassigned) [Example 364] | 3 |  | > 10 | 45 | 96 | 37 |  |  |  |
| O=C1CCC(N2Cc3cc(C[C@H]4OCCC[C@@H]4NC4CCC(F)CC4)ccc3C2=O)C(=O)N1 (single isomer, unassigned) [Example 366] | 17 |  | > 10 | > 1000 | 85 |  |  |  |  |
| O=C1CCC(N2Cc3cc(C[C@H]4OCCC[C@@H]4NC4CCC(F)CC4)ccc3C2=O)C(=O)N1 (single isomer, unassigned) [Example 367] | 15 | 87 | > 10 | > 1000 |  |  |  |  |  |
| O=C1CCC(N2Cc3cc(C[C@H]4C[C@H](F)CC[C@@H]4NC4CCC(F)(F)CC4)ccc3C2=O)C(=O)N1 (some centres unmarked) [Example 169] | 1 |  | > 10 | 79 | 97 | 42 |  |  |  |
| [2H]C1(N[C@H]2CCCC[C@@H]2Cc2ccc3c(c2F)CN(C2CCC(=O)NC2=O)C3=O)CCC(F)(F)CC1 (some centres unmarked) [Example 209] | 1 |  | > 10 | 35 | 97 | 62 |  |  |  |
| O=C1CCC(N2Cc3c(ccc(C[C@H]4OCCC[C@@H]4NC4CCN(CC(F)(F)F)CC4)c3F)C2=O)C(=O)N1 (some centres unmarked) [Example 308] | 12 |  | > 10 | > 1000 | 96 |  |  |  |  |
| O=C1CCC(N2Cc3c(ccc(C[C@H]4OCCC[C@@H]4NC4CCN(CC(F)F)CC4)c3F)C2=O)C(=O)N1 (some centres unmarked) [Example 309] | 16 |  | > 10 | > 1000 |  |  |  | 96 |  |
| CO[C@H]1CC[C@H](Cc2ccc3c(c2)CN(C2CCC(=O)NC2=O)C3=O)[C@@H](NC2CCC(F)(F)CC2)C1 (some centres unmarked) [Example 344] | 6 |  | > 10 | 41 | 93 | 51 |  |  |  |
| O=C1CCC(N2Cc3cc(C[C@H]4CCCC[C@@H]4NC4CCc5[nH]nc(C(F)(F)F)c5C4)ccc3C2=O)C(=O)N1 (some centres unmarked) [Example 352] | 3 |  | 3.1 | 323 | 99 | 47 |  |  | 47 |
| Cn1ncc2c1CCC(N[C@H]1CCCC[C@@H]1Cc1ccc3c(c1)CN(C1CCC(=O)NC1=O)C3=O)C2 (some centres unmarked) [Example 377] | 5 |  | > 10 | 73 | 97 | 48 |  |  |  |
